Measured values published in patent publication US20190352288A1, “MATRIX METALLOPROTEINASE (MMP) INHIBITORS AND METHODS OF USE THEREOF” (Foresee Pharmaceuticals Co., Ltd., priority 2018, published 2019).
Entries after “also recorded” stand apart in the source; their conditions may differ.

Experiments:
[1] = target: recombinant human MMP-8 (Homo sapiens, UniProt P22894); experiment: MMP selectivity assay, MMP-8; type: biochemical; details: Table 2 selectivity profile
Experimental: (§1) The inhibitory effect of compounds on the rate of cleaving fluorogenic MMP substrate (Enzo, BML-P128) by recombinant human MMP-12 catalytic domain (Enzo, BML-SE138) was carried out by methods known in the art. Briefly, to each well of a 96-well black opaque plate, all the reagents were sequentially added by pipetting, and the final reaction contained 4 nM of recombinant human MMP-12 catalytic domain, 4 μM of fluorogenic MMP substrate, and various concentrations (0.15 nM to 10,000 nM) of tested compound dilutions in HEPES buffer (pH 7.5) containing 10 mM of CaCl2), 0.01% Brij® 35 (polyoxyethylene (23) lauryl ether), and 0.1 mg/ml of BSA.
(§2) The enzyme and compounds were pre-incubated on a shaker to mix in wells. After an hour of mixing, fluorogenic substrate was added to each well. Reaction without enzyme was used as a blank control in the plate. The plate was then fed into a plate reader to measure fluorescence intensity at Excitation/Emission wavelengths of 340 nm/440 nm every 10 mins for at least 1 hour at 37° C. The IC50 of each compound in MMP-12 inhibition was determined by using a readout obtained at time point 30 minutes.
(§3) The MMP selectivity assay was performed by using other recombinant human MMPs, including MMP-1, MMP-2, MMP-3, MMP-7, MMP-8, MMP-9, MMP-10, MMP-13, and MMP-14. The IC50 of the compounds for the other recombinant human MMPs was determined as described above in Example 1, and are shown in Table 2.

[2] = target: recombinant human MMP-14 (Homo sapiens, UniProt P50281); experiment: MMP selectivity assay, MMP-14; type: biochemical; details: Table 2 selectivity profile
Experimental: as §1, §2, §3

[3] = test system: SD rat kidney fibrosis model by unilateral ureteral occlusion (UUO); experiment: Efficacy study on SD rat kidney fibrosis model by unilateral ureteral occlusion (UUO); type: in vivo, Sprague Dawley (SD) rats
Experimental: This study was to evaluate the therapeutic efficacy of MMP-12 inhibitor, PC-16 on a renal fibrosis model by unilateral ureteral occlusion (UUO). Male Sprague Dawley (SD) rats (180-220 g, n=71) were used in this study. Animals were randomly divided into 4 groups: vehicle group (group-1, n=8), PC-16 2 mg/kg/day group (group-2, n=9), PC-16 6 mg/kg/day group (group-3, n=10), PC-16 20 mg/kg/day group (group-4, n=9). Animals were anesthetized with 2.5% isoflurane inhelation. The left ureter was ligated to create a unilateral ureteral occlusion (UUO) model to induce renal fibrosis. The test article, PC-16 was administrated twice a day via oral delivery after modeling for 14 days. Peripheral blood serum was prepared at pre-modeling and day-15 (one day after last dosing). All animals were euthanized and processed for left kidney pathology studies.
Animals: Gender: Male, SD rats, 180-220 g, total 71. Certificate: 11400700272659, Beijing Vital River Laboratory Animal Technology Co., Ltd., China. Animal holding: Animals were maintained in a temperature-controlled environment with a 12 hours light/12 hours dark cycle and free access to food and water. Experimental procedures were performed according to IACUC guidelines in the KCI (SuZhou) Biotech Inc. (KCI) animal research facility. Model creation: Total […] male SD rats were used in this study. After anesthesia with 2.5% isoflurane inhalation the animal abdomen was opened surgically. The left ureter was exposed and ligated close to the bladder to create the UUO model. After confirming no bleeding, the abdomen wall was closed in layers. The animals were maintained under temperature controlled pad (37° C.) for the recovery from anesthesia, and then were transferred to holding cages with regular food and water.
Experiment grouping: UUO modeling animals were divided into 7 groups randomizedly as vehicle (group-1, n=8), PC-16 2 mg/kg/day (group-5, n=9), PC-16 6 mg/kg/day (group-6, n=10), PC-16 20 mg/kg/day (group-7, n=9) (Table 4.1). Dosing regimen: All test articles were designed as an oral administration via a gastric perfusion. Test articles were designed to be delivered twice a day starting on the same day of modeling for 14 days (Table 4.1). Endpoints: 1) Blood collection: Peripheral blood was collected from all animals in each group and prepared for serum at pre-modeling and day-15 (one day after last dosing), stored at −80° C. All animals were euthanized according to KCI SOP. After confirming animal death without breath and heart bite the left kidneys were perfused with cold PBS followed by 10% neutral formalin and collected for further pathology study. 2) Detection of serum BUN and creatinine: The serum BUN and creatinine level were detected with Hitachi 7060 automatic biochemical analyzer and related test kits. 3) Kidney pathology examination: 3a) Kidney H&E staining and analysis: Following KCI's pathologic SOP all left kidneys were fixed in 10% formalin for at least 24 h at room temperature. After fixation, the kidney was cut longitudinally to get the largest surface and dehydrated in graded ethanol, cleared in xylene, and embedded in paraffin. Thin sections (3-μm) were mounted on glass slides, dewaxed, rehydrated to distilled water, and stained with hematoxylin and eosin (H&E). All stained slides were scanned with NanoZoomer Digital Pathology (S210, Hamamaci, Japan) scanner. Semi quantitative evaluation of the degree of tubular epithelial flattening and dilatation were graded from 0-5 according to the percentage of tubular involvement: score 0=no damage; score 1=1-10% damage; score 2=10-25% damage; score 3=25-50% damage; score 4=50-75% damage; score 5=75-100% damage. Semi quantitative evaluation of the tubular necrosis is graded from 0 to 3 according to the percentage of tubular involvement: score 0=no necrosis; score 1=<25% necrosis; score 2=25-50% necrosis; score 3=>50% necrosis. The average of tubular flattening and dilatation and necrosis as the total tubular damage was presented. […]

[4] = UUO rats, 20 mg/kg/day (p<0.05)

Chain of recombinant human MMP-8 (P22894 101-467): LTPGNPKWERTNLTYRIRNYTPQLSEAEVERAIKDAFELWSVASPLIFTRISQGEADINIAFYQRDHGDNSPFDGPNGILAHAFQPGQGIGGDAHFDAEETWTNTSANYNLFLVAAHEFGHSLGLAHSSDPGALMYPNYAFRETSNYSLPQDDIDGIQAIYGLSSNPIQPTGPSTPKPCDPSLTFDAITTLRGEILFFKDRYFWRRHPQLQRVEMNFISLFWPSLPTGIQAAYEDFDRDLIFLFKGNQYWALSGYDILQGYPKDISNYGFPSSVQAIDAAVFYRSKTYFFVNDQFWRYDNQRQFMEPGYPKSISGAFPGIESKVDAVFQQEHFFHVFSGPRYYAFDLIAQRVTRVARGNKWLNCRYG

In the case of Cc1cc(COc2ccc(Sc3ccncc3C3NC(=O)NC3=O)cc2)ccn1 (stereo not shown) [PC-16], the IC50 [1] is reported as 1 to 10 µM, the IC50 [2] is reported as 1 to 10 µM and the “collagen-IV deposition in cortex area of left kidney (IHC)” value ([3]; UUO rats, 6 mg/kg/day (P<0.05)) is reported as “significant reduction in collagen-IV deposition”. For the same compound, the “interstitial fibrosis score in cortex” value ([3]; UUO rats, 20 mg/kg/day (p<0.001)) was “significant reduction in the fibrosis score”, the “collagen-I deposition in cortex area of left kidney (IHC)” value [3, 4] was “significant reduction in collagen-I deposition” and the “collagen-IV deposition in cortex area of left kidney (IHC)” value [3, 4] was “significant reduction in collagen-IV deposition”. For the same compound, the “serum blood urea nitrogen (BUN) elevation vs vehicle/model group” value ([3]; UUO rats, 20 mg/kg/day oral bid 14 days, day-15, 20 mg/kg/day) was “slightly limit the blood urea nitrogen (BUN) elevation; also recorded: did not show a statistically significant difference”, the “left kidney tubular damage (renal tubular damage score)” value ([3]; UUO rats, 2, 6, 20 mg/kg/day oral bid 14 days, 20 more effective than 2 mg/kg/day (p<0.01)) was “clear dose dependent effect” and the “interstitial inflammation in cortex (semi quantitative score)” value ([3]; UUO rats, 2, 6, 20 mg/kg/day oral bid 14 days, dose dependent) was “significant reduction”. The “interstitial fibrosis score in cortex” value ([3]; UUO rats, all dose groups (2, 6, 20 mg/kg/day), dose dependent) was “significant reduction in the fibrosis score”.
